The target of this assay is Peroxisome proliferator-activated receptor gamma/Nuclear receptor corepressor 2 (Homo sapiens, UniProt P37231+Q9Y618). In kind it is functional.

From ChEMBL document CHEMBL1201862, “PubChem BioAssay data set” (2004) come the findings set out here.

Active and inactive are the calls of the source. No stated cut-off is given here; in the data, active = IC50 of 10 µM or less and inactive = more.

Sequence of Peroxisome proliferator-activated receptor gamma/Nuclear receptor corepressor 2 (P37231 whole entry): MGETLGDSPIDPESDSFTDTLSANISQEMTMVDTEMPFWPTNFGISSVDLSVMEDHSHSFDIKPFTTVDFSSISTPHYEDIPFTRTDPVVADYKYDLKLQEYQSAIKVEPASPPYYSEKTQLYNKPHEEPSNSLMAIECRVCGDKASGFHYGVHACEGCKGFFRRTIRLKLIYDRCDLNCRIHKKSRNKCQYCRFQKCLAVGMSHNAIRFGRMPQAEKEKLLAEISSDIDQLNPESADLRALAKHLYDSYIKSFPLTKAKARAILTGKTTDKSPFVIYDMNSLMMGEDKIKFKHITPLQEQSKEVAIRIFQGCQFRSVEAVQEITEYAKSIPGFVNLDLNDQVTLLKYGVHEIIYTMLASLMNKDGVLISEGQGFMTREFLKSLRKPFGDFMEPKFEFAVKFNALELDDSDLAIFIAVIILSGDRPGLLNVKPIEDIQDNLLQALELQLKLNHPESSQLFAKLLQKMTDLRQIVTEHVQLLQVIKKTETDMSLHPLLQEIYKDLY
Sequence of Peroxisome proliferator-activated receptor gamma/Nuclear receptor corepressor 2 (Q9Y618 whole entry): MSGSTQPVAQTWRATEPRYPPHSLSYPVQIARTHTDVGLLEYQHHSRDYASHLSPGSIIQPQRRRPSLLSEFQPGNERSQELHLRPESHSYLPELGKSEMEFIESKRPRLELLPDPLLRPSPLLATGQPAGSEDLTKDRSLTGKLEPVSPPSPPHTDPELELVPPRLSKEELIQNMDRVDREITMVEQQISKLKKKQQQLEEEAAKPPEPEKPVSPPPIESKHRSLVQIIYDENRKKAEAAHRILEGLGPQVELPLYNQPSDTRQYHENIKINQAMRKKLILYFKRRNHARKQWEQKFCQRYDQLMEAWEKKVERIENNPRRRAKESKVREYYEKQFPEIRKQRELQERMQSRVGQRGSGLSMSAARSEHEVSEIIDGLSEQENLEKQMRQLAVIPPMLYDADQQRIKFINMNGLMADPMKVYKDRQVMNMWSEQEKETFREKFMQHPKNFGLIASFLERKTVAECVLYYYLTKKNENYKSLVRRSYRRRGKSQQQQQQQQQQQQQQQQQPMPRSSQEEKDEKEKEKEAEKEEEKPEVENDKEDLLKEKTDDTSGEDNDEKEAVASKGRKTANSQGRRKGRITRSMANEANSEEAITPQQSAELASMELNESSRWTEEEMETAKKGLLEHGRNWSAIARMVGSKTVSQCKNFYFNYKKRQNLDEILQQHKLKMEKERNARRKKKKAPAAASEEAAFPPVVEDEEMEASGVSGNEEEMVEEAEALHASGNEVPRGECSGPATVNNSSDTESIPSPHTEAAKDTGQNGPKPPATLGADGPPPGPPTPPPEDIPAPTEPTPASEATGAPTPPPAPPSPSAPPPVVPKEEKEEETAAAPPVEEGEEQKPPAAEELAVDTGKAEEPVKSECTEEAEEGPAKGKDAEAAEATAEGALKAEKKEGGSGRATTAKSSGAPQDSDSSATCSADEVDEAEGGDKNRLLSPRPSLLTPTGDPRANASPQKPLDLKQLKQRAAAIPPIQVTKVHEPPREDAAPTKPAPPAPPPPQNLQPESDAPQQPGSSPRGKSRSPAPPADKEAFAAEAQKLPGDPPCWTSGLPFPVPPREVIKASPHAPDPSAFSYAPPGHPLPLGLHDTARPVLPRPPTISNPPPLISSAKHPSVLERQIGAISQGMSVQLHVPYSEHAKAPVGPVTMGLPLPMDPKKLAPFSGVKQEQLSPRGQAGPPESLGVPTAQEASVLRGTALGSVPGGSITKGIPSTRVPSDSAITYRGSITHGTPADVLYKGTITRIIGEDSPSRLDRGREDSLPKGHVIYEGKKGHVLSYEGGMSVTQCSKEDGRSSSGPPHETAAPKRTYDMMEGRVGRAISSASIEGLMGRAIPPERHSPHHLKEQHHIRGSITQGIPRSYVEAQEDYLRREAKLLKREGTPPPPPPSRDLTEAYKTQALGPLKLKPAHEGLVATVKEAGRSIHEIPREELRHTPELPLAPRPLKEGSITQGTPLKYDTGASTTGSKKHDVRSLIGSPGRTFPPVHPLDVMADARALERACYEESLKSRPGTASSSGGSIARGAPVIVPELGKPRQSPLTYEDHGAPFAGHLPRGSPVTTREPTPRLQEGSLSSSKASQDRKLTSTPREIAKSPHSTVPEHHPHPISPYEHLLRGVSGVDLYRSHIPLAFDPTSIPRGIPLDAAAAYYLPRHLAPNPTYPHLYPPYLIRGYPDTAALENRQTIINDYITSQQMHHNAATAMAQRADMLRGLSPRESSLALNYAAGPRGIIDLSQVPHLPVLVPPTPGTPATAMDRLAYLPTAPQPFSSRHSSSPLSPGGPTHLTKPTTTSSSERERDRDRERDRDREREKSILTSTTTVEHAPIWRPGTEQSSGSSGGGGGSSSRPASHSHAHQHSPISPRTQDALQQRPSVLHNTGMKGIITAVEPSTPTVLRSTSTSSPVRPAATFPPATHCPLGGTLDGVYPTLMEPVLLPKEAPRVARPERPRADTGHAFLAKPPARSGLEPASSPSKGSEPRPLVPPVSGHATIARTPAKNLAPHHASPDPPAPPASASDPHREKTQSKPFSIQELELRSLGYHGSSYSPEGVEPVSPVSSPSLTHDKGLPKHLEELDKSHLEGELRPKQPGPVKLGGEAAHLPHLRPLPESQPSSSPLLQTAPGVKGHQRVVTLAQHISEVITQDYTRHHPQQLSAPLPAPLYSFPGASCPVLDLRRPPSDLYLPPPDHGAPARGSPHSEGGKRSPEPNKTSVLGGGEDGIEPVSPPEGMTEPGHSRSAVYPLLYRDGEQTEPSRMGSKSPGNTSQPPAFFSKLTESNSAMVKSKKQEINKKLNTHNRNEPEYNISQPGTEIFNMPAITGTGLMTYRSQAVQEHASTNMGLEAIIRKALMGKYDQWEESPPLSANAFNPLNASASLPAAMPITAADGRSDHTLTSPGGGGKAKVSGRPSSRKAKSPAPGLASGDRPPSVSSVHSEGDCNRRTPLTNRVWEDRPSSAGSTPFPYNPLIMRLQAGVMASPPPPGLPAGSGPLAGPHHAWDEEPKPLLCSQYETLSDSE

Broadly, the IC50 is the point on the concentration scale where inhibition reaches its midpoint. As to `N#Cc1c(NC(=O)c2ccc(Br)o2)n(-c2ccccc2)c2nc3ccccc3nc12`, the IC50 was 5.08 µM (active).
